“And” between values parts separate entries of the source, which are not always exact repeats. Equal entries are not always repeated.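 Values below derive from 48-hour exposures of cells grown in 96-well plates, with endpoints linearly interpolated between the two concentrations bracketing the appropriate inhibition level. GI50 is the concentration that inhibits growth by half. TGI: total growth inhibition.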 Where a SMILES comes first, the peptide text is derived from it. [ ]: non-standard residue; d: D form. The star is where a group is joined. Phe(4-NO2) = N[CH](Cc1ccc([N+](=O)[O-])cc1)C(=O)O; Boc = CC(C)(C)OC(=O)*
Experiments:
Experiment in all cases: NCI anticancer screen, dose series, 48 h
SK-OV-3 ovarian = test system: SK-OV-3 ovarian
UO-31 renal = test system: UO-31 renal
MDA-N = test system: MDA-N
ACHN renal = test system: ACHN renal
CCRF-CEM leukemia = test system: CCRF-CEM leukemia
SK-MEL-28 melanoma = test system: SK-MEL-28 melanoma
MOLT-4 leukemia = test system: MOLT-4 leukemia
UACC-62 melanoma = test system: UACC-62 melanoma
TK-10 renal = test system: TK-10 renal
A498 renal = test system: A498 renal

SMILES	TGI (SK-OV-3 ovarian) [µM]	TGI (UO-31 renal) [µM]	TGI (MDA-N) [µM]	TGI (ACHN renal) [µM]	TGI (CCRF-CEM leukemia) [µM]	TGI (SK-MEL-28 melanoma)	TGI (MOLT-4 leukemia) [µM]	TGI (UACC-62 melanoma) [µM]	TGI (TK-10 renal) [µM]	TGI (A498 renal) [µM]	GI50 (SK-OV-3 ovarian) [µM]	GI50 (UO-31 renal) [µM]	GI50 (ACHN renal) [µM]	GI50 (A498 renal) [µM]	GI50 (CCRF-CEM leukemia) [µM]	GI50 (SK-MEL-28 melanoma) [µM]	GI50 (MOLT-4 leukemia) [µM]	GI50 (UACC-62 melanoma) [µM]	GI50 (TK-10 renal) [µM]
O=C1c2ccccc2C2(c3ccc(F)cc3)NCCN12 (stereo not given)	> 100	> 100	> 100	> 100	> 100	> 100 µM	> 100	> 100	> 100	–	–	–	–	–	–	–	–	–	–
COC(=O)c1c2c(cc3c1CC1(Cc4cc5c(c(C)c4C1)CCC5)C3)CCC2 (stereo not given)	> 100	> 100	> 100	> 100	> 100	> 100 µM	> 100	–	> 100	> 100	–	–	–	–	–	–	–	–	–
O=Nc1c(-c2c(O)[nH]c3ccc(I)cc23)[nH]c2ccccc12	> 35	5.43	47.2	> 21.4	5.07	> 100 µM	–	4.45	> 41.5	> 27.6	–	–	–	–	–	–	–	–	–
COc1cc2nc(N3CCC[C@H](NC4=CC(=O)c5ccccc5C4=O)C3)nc(N)c2cc1OC	4.22	3.16	–	3.47	5.45	3.67 µM	5.9	4.72	4.12	34	2.22	1.49	1.84	11.8	1.79	1.97	2.37	2.14	2.41
COC(=O)C1C(=O)CC(C)(O)C(C(=O)OC)C1c1ccc(N(C)C)cc1 (stereo not given)	–	> 100	> 100	> 100	> 100	> 100 µM	> 100	> 100	> 100	> 100	–	–	–	–	–	–	–	–	–
Cc1c(OCc2cccc3ccccc23)ccc2c(=O)cc(SCCN3CCOCC3)oc12	–	> 100	–	> 100	> 100	> 100 µM	> 100	> 100	> 100	> 100	–	–	–	–	–	–	–	–	–
COC(=O)C(Cc1c[nH]c2ccccc12)NC(=O)C(Cc1c[nH]c2ccccc12)NC(=O)C(Cc1c[nH]c2ccccc12)NC(=O)C(Cc1c[nH]c2ccccc12)NC(=O)C(Cc1c[nH]c2ccccc12)NC(=O)C(Cc1c[nH]c2ccccc12)NC(=O)C(Cc1c[nH]c2ccccc12)NC(=O)OC(C)(C)C (stereo not given) (Boc-WWWWWWW-OMe; configuration not given here)	–	> 100	> 100	> 100	> 100	> 100 µM	> 100	> 100	> 100	–	–	–	–	–	–	–	–	–	–
O=C(Nc1ccc(-n2cc(-c3ccncc3)c(-c3ccc(O)c(Cl)c3)n2)cc1)c1ccc(Cl)c(C(F)(F)F)c1	–	28.3	–	13.3	> 50	> 50 µM	34.2	14.2	18.1	> 50	–	2.65	1.8	41.7	0.275	3.61	1.69	3.38	1.72
COc1ccc(OC)c2c(C)ccnc12	> 100	74.3	> 100	> 100	> 29.8	> 100 µM	–	93.5	> 100	> 100	–	–	–	–	–	–	–	–	–
Cn1c2ccccc2n2c3ncccc3c(=O)cc12	> 100	> 100	> 100	> 100	–	> 100 µM	> 100	–	> 100	> 100	–	–	–	–	–	–	–	–	–
CCOC(=O)CCC(NC(=O)C(Cc1ccc([N+](=O)[O-])cc1)NC(=O)OC(C)(C)C)C(=O)NC(CCC(=O)OCC)C(=O)OCC (stereo not given) (Boc-[Phe(4-NO2)]-Glu(OEt)-Glu(OEt)-OEt; configuration not given here)	–	> 100	52.6	31.1	–	32.1 µM	6.62	32.4	30.1	36.4	–	–	–	–	–	–	–	–	–
COc1ccc(/C=C2\CCCc3ccccc3C2=O)cc1	> 60.6	> 100	–	> 100	24.8	> 100 µM	35.3	26	> 96.6	–	–	–	–	–	–	–	–	–	–
COc1cc(S(=O)(=O)Nc2ccc(-c3csc(N4C(=O)C(Cl)C4c4ccccc4O)n3)cc2)ccc1Cl (stereo not given)	> 100	> 100	> 100	> 100	9.13	> 100 µM	41.7	59.1	–	0.948	–	–	–	–	–	–	–	–	–
O=C(O)Cn1c2c(c3c1-c1ccccc1C3=O)C(=O)CCC2	> 100	> 100	–	> 100	> 100	> 100 µM	> 100	–	> 100	> 100	> 100	> 100	> 100	> 100	32	> 100	> 100	–	> 100
COc1cccc(C(C#N)NNC(=O)c2c(Cl)c(Cl)c(Cl)c(Cl)c2-c2nc3ccc(C(=O)c4ccccc4)cc3[nH]2)c1O (stereo not given)	> 100	> 100	–	> 100	> 100	> 100 µM	> 100	–	> 100	7.29	–	–	–	–	–	–	–	–	–
CCC1=C(C[C@H]2NCCc3cc(OC)c(OC)cc32)C[C@H]2c3cc(OC)c(OC)cc3CCN2C1	0.73	0.923	–	0.28	–	0.192 µM	> 100	0.138	–	0.0497	–	–	–	–	–	–	–	–	–
Cc1ccc(-n2nncc2[Si](C)(C)C)s1	> 100	> 100	> 100	> 100	56.7	> 100 µM	–	> 100	> 100	> 100	–	–	–	–	–	–	–	–	–
Cc1cc2c(=O)c3ccc(Cl)cc3[nH]c2c(C(N)=O)c1C	> 100	> 100	–	> 100	> 100	> 100 µM	> 100	> 100	> 100	> 100	–	–	–	–	–	–	–	–	–
Cc1cc(N2CCCCC2)nc2ccc(Cc3ccc4nc(N5CCCCC5)cc(C)c4c3)cc12	> 100	> 100	> 100	> 100	–	> 100 µM	> 100	> 100	> 100	> 100	–	–	–	–	–	–	–	–	–
Oc1ccc2ccccc2c1OCc1nnc(CCCCCCCCc2nnc(COc3c(O)ccc4ccccc34)n2Nc2ccccc2)n1Nc1ccccc1	> 100	> 82	–	> 100	–	> 87.7 µM	> 100	26.6	> 100	> 100	–	–	–	–	–	–	–	–	–
Cc1cc2nc3ccccc3n2c2ccccc12	> 10	–	> 10	> 10	> 10	> 10 µM	> 10	> 10	> 10	–	–	–	–	–	–	–	–	–	–
N/N=C(/N)SCCCCCCCCCCS/C(N)=N/N	–	78.9	–	67.4	> 100	> 100 µM	–	47.1	> 100	43.8	–	–	–	–	–	–	–	–	–

SMILES	TGI (SK-OV-3 ovarian) [µM]	TGI (UO-31 renal) [µM]	TGI (MDA-N) [µM]	TGI (ACHN renal) [µM]	TGI (CCRF-CEM leukemia) [µM]	TGI (SK-MEL-28 melanoma)	TGI (MOLT-4 leukemia) [µM]	TGI (UACC-62 melanoma) [µM]	TGI (TK-10 renal) [µM]	TGI (A498 renal) [µM]	GI50 (SK-OV-3 ovarian) [µM]	GI50 (UO-31 renal) [µM]	GI50 (ACHN renal) [µM]	GI50 (A498 renal) [µM]	GI50 (CCRF-CEM leukemia) [µM]	GI50 (SK-MEL-28 melanoma) [µM]	GI50 (MOLT-4 leukemia) [µM]	GI50 (UACC-62 melanoma) [µM]	GI50 (TK-10 renal) [µM]
O=c1[nH]n(CCc2ccccc2CCl)c2ccc([N+](=O)[O-])cc12	–	> 100	–	> 100	> 100	> 100 µM	> 100	> 100	> 100	> 100	–	–	–	–	–	–	–	–	–
Cc1ccc(N=C/C=C(\Nc2ccc(C)cc2)c2ccc3ccccc3c2)cc1	9.71	13.1	–	7.77	0.558	11.2 µM	0.533	1.3	6.82	24.2	–	–	–	–	–	–	–	–	–
O=C1c2ccncc2C(=O)c2c(O)ccc(O)c21	–	29.7	–	17.1	32.7	26.7 µM	54.5	10.6	42.3	33.1	–	–	–	–	–	–	–	–	–
COc1c(C)c(C/C=C(\C)CCCC(C)CCCC(C)CCCC(C)C)c(OC)c2ccccc12 (stereo not given)	> 100	> 100	> 100	> 100	> 100	–	> 100	> 100	> 100	–	–	–	–	–	–	–	–	–	–
CCOC(=O)C1CCC(=O)N1C(=O)c1cccc(Cl)c1 (stereo not given)	–	> 100	> 100	> 100	> 100	> 100 µM	> 100	62.4	> 100	> 100	–	–	–	–	–	–	–	–	–
Oc1c(Cl)cc2cc1-c1cc(cc(Cl)c1O)CCc1c(cc(Cl)c(O)c1Cl)-c1cc(Cl)c(c(Cl)c1O)/C=C\2	18	–	–	29.7	> 50	19.3 µM	> 50	18	–	30.8	–	–	–	–	–	–	–	–	–
CC(CCc1nc2ccccc2s1)(c1ccc(O)cc1)c1ccc(O)cc1	–	31.3	31.1	33.2	–	33.7 µM	42.9	29.4	34.1	36.5	–	–	–	–	–	–	–	–	–
O=c1c2ccccc2nc(N/N=C/c2ccc([N+](=O)[O-])cc2)n1-c1ccccc1	64.8	> 100	> 100	62.9	> 100	30.1 µM	> 100	> 100	56.3	–	–	–	–	–	–	–	–	–	–
COc1ccc(/C=c2\[nH]c3nc(=O)c(N4CCCCC4)c(N)n3c2=O)cc1	> 100	> 100	> 100	> 100	> 100	> 100 µM	> 100	–	> 100	> 100	–	–	–	–	–	–	–	–	–
Cc1cc2c(c(C(=O)NCC(=O)O)c1)Oc1c(cc(C)cc1C(=O)NCC(=O)O)S2	> 100	–	> 100	> 100	> 100	> 100 µM	> 100	> 100	> 100	–	–	–	–	–	–	–	–	–	–
O=C1N2CCC[C@H]2CS1(=O)=O	> 100	28.5	–	29.7	7.1	41.2 µM	22.5	30	32.2	44.5	–	–	–	–	–	–	–	–	–
C/C(=N\Nc1nc2ccccc2[nH]1)c1ncccn1	> 100	–	> 100	0.201	> 100	–	> 100	2.88	> 78.1	2.23	–	–	–	–	–	–	–	–	–
Cc1cc(C)nc(NS(=O)(=O)c2ccc(NNc3c4ccccc4nc4c(C(=O)Nc5ccc(S(=O)(=O)Nc6cc(C)on6)cc5)cccc34)cc2)n1	> 100	> 100	> 100	> 100	63.5	–	82.2	> 100	> 100	–	–	–	–	–	–	–	–	–	–
c1cc2cc3c4c5c(cc6ccc7cc8cc9c%10c8c8c7c6c5c8c5c%10c(c1C9N1CCOCCOCCOCCOCCOCC1)c2c45)C3 (stereo not given)	> 100	> 100	> 100	> 100	> 100	> 100 µM	> 100	> 100	> 100	–	–	–	–	–	–	–	–	–	–
Cc1ccc(N2C(=O)C3CSCN3C2=O)cc1 (stereo not given)	> 100	> 100	–	–	> 100	> 100 µM and 31.2 µM	> 100	> 100	–	> 100	–	–	–	–	–	> 100	–	–	–
C=C(Br)C[N+]12CN3CN(CN(C3)C1)C2	> 100	> 100	> 100	> 100	> 100	> 100 µM	> 100	> 100	–	> 100	–	–	–	–	–	–	–	–	–
Clc1ccc(-c2nn3c(COc4cccc(OCc5nnc6sc(-c7ccc(Cl)cc7)nn56)c4)nnc3s2)cc1	> 100	39.6	36.4	68.4	–	35.9 µM	74.6	77.1	> 100	61.8	–	–	–	–	–	–	–	–	–
CCOC(=O)CCc1cn2cc(Br)nc(OC)c2n1	> 100	58.5	12.6	–	> 100	> 100 µM	> 100	> 100	> 100	–	–	–	–	–	–	–	–	–	–
CC(C)[C@H](C)/C=C/[C@@H](C)C1CC[C@H]2[C@@]34C=C[C@]5(C[C@@H](O)CC[C@]5(C)[C@H]3CC[C@]12C)OO4 (stereo not given in full)	> 100	> 100	> 100	> 100	–	> 100 µM	> 100	43.6	> 100	57.3	–	–	–	–	–	–	–	–	–
C/C(=C\Cc1ccc(F)cc1)CCCCCC/C(C)=C/Cc1ccc(F)cc1	68.6	23.1	34.2	24.8	42.6	–	47.6	33	29.5	–	–	–	–	–	–	–	–	–	–
CCOC(=O)c1cc2c3c(c(C(C)=O)c(OC)c2[nH]1)N(C(=O)CC)CC3	> 100	27	39.4	–	71.4	44.7 µM	35.9	34.4	–	> 100	–	–	–	–	–	–	–	–	–
